PMC9573605, “Exploring Nitric Oxide (NO)-Releasing Celecoxib Derivatives as Modulators of Radioresponse in Pheochromocytoma Cells” (Molecules, 2022)
pIC50: −log10 of the molar value. Structures can show the parent of a compound that is named as a salt. Where two headings read alike, the source gives them in different places.

Assays:
[1] = Lipophilicity logD7.4 by HPLC method; assay type: physicochemical; settings: HPLC retention on ODP-50 4B column (Shodex Asahipak), phosphate buffer pH 7.4
Description: The lipophilicity of all synthesized compounds was determined as logD7.4, HPLC value by an HPLC method originally described by Donovan and Pescatore.
The logD7.4HPLC value was determined as previously reported by us utilizing an HPLC method originally described by Donovan and Pescatore.

purified ovine COX-1 [2] = target: T1, purified ovine COX-1 (Ovis aries, UniProt P05979); parameters: method as in PMID 26081289; settings: previously reported ref 49; cited from earlier work
T1 construct: purchased Cayman Chemical 700100
T1 sequence (P05979 25-600): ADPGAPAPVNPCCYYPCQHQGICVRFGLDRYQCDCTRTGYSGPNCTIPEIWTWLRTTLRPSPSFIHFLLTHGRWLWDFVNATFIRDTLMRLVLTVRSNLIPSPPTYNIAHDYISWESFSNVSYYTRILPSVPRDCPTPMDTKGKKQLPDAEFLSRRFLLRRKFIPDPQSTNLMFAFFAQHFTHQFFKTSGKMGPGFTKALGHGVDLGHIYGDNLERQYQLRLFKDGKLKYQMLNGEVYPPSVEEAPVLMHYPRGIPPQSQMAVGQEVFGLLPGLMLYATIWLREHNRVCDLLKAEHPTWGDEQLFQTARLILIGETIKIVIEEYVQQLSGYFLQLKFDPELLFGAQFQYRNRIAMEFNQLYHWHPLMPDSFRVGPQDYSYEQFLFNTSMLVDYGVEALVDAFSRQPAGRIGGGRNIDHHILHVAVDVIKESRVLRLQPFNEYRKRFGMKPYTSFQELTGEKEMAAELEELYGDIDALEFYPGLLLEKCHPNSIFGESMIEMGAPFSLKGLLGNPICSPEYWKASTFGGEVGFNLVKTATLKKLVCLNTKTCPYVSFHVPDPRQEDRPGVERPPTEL

recombinant human COX-2 [3] = target: T2, recombinant human COX-2 (Homo sapiens, UniProt P35354); parameters: method as in PMID 26081289; settings: cited from earlier work; for SI: COX-1 vs COX-2 selectivity index, COX inhibition previously reported ref 49
T2 construct: purchased Cayman Chemical 700100
T2 sequence (P35354 18-604): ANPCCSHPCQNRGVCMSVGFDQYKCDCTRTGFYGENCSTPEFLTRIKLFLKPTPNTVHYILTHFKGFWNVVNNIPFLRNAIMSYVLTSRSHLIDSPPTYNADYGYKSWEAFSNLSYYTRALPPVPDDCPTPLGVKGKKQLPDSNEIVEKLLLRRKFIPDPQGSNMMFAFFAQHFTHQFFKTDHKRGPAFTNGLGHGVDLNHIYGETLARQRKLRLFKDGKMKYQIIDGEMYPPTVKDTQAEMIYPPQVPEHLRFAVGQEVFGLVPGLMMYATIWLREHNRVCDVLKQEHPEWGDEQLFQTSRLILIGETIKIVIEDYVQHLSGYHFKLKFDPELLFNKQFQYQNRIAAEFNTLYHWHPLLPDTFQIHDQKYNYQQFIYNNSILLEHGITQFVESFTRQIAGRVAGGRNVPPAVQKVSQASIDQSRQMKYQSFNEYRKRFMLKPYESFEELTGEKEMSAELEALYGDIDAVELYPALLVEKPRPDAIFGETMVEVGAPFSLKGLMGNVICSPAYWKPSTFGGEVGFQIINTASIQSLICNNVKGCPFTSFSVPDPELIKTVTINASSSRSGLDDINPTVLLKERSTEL

purified ovine COX-1 [4] = target: T1, purified ovine COX-1; test: COX Fluorescent Inhibitor Screening Assay, COX-1; assay type: biochemical; settings: 0.1 nM to 100 µM in duplicate
Description: (§1) COX inhibition (Table 1) was evaluated in vitro using purified ovine COX-1 and recombinant human COX-2 enzyme in a commercially available “COX Fluorescent Inhibitor Screening Assay KIT” (item no. 700100, Cayman Chemical, Ann Arbor, MI, USA). Celecoxib served as a reference and inhibition data concerning 4a, 4e, 5a and 5e were previously reported by us and is herein discussed for comparison.
(§2) COX inhibition activity against ovine COX-1 and human COX-2 was determined using the fluorescence-based COX assay “COX Fluorescent Inhibitor Screening Assay Kit” (catalog number 700100; Cayman Chemical, Ann Arbor, MI, USA) according to the manufacturer’s instructions. Compounds 6a–d were screened at a concentration of 100 µM, all others were assayed in a concentration range of 0.1 nM to 100 μM in duplicate.

recombinant human COX-2 [5] = target: T2, recombinant human COX-2; test: COX Fluorescent Inhibitor Screening Assay, COX-2; assay type: biochemical; settings: for SI: COX-1 vs COX-2 selectivity index; for pIC50: human COX-2, 0.1 nM to 100 µM in duplicate
Description: as §1, §2

[6] = Fluorometric NO release assay (Griess assay); assay type: physicochemical; settings: 24 h, 37 °C, relative to initial molar amount of compound; for thiol-dependent NO release: 2.5 mM cysteine; for spontaneous NO release: absence of cysteine
Description: The nitric oxide releasing properties of the nitroester-derivatives 5a–d, 5f, and 6a–d were evaluated using a fluorometric Griess assay in the presence and absence of cysteine to determine thiol-dependent and spontaneous release of nitric oxide (Figure 3).
Nitric oxide release of compounds within 24 h at 37 °C was measured using the fluorometric nitric oxide microplate assay kit ab65327 (Abcam, Cambridge, UK). For measurement of spontaneous release, 1.8 nmol of compounds were incubated in 75 µL Dulbecco’s PBS containing 0.05% v/v residual DMSO and 2.5 mM DTPA (pH = 7.1) for 24 h at 37 °C. Thiol-dependent release was measured accordingly in presence of 2.5 mM cysteine. Two series of nitrate standards were prepared (0.2−1 nmol) in 75 µL incubation buffer, in presence or absence of cysteine, respectively. According to the manufacturer’s instructions, all nitrate content in samples and standards was enzymatically converted into nitrite through incubation with nitrate reductase for 2 h at room temperature, and the resulting nitrite content (total nitric oxide) was determined through reaction with 2,3-diaminonaphthalene followed by measurement of fluorescence intensity at λex/em = 360/450 nm using a microplate reader. Nitrite content in samples was calculated from linear regression of standards and expressed as relative nitric oxide release (%) normalized to the initial molar amount of compound. NONOate served as positive control.
Figure 3 Spontaneous and thiol-dependent NO^• release from NO-COXIBs; measured using fluorometric Griess assay (n = 2); relative release indicates the percentage of soluble nitrogen species (nitrate + nitrite) detected in the incubation buffer after 24 h compared to the initial molar amount of compounds; NO^• release of NONOate (positive control) exceeded the maximum detection limit; data presented as mean ± range.

[7] = Conversion in NO-assay buffer followed by UPLC; assay type: physicochemical; settings: after 70 h, 37 °C, presence of cysteine
Description: The time-dependent degradation behavior of compounds 4f, 5a–f, and 6a–d as well as celecoxib was followed by UPLC analysis over a time course of 8 days (Figure 4). For that, compounds were incubated at 37 °C in the presence or absence of cysteine in the assay buffer used for the Griess assay. Samples were withdrawn at distinct time points (1, 5, 23, 47, 70, and 191 h), diluted into a mixture of acetonitrile/water, and analyzed.
The time-dependent conversion of NO-COXIBs 5a–f and 6a–d as well as reference compounds 4f and celecoxib in the presence or absence of cysteine in assay buffer was investigated by following the degradation of intact compound and identification of selected degradation products by UPLC. For that, samples were incubated at 37 °C in the assay buffer in the presence or absence of cysteine and at the indicated time point; 5 µL assay buffer of each sample was withdrawn and diluted with 45 µL MeCN/water (50/50 v/v). The samples were thoroughly vortexed and then subjected to UPLC analysis. All samples of one time point were analyzed within a total analysis time of approximately 2.5 h. Conversion was monitored at 254 nm using the following UPLC system: column Aquity UPLC® HSS C18 column (Waters Corporation, Milford, MA, USA; 100 × 2.1 mm, 1.8 µm, 130 Å), UPLC H-Class (Waters Corporation, Milford, MA, USA): quaternary gradient pump QSM, autosampler FTN, column heater CHA, and diode array detector PDAeλ, γ detector Gabi Star (Raytest Isotopenmeßgeräte GmbH, Straubenhardt, Germany), flow rate 0.4 mL/min, eluent: (A): 0.1% acetic acid in MeCN/MeOH 1/1/(B): 0.1% acetic acid in H2O; gradient: t0min 45/55–t0.5min 45/55–t5.5min 95/5–t7.0min 95/5–t7.2min 45/55–t8.5min 45/55). For the identification of degradation products, samples taken after 24 h were additionally subjected to HPLC-HRMS analysis using HPLC system 6. In brief, the NO-COXIBs were converted to the respective hydroxymethyl-substituted compounds and in the presence of cysteine additionally to the cysteine adduct, which could be identified by the respective Δm/z shifts. A detailed comparison of calculated and found m/z-signals is given in Supplementary Material Table S1, and copies of HPLC-HRMS chromatograms and selected spectra are given in Supplementary Material Figures S56–S66.

| SMILES | melting point [°C] | chromatographic logD [1] | pIC50 (purified ovine COX-1 [4]) | SI (recombinant human COX-2 [5]) | pIC50 (recombinant human COX-2 [5]) | other results |
| --- | --- | --- | --- | --- | --- | --- |
| Cc1ccc(-c2c(Cl)c(CO[N+](=O)[O-])nn2-c2ccc(S(C)(=O)=O)cc2)cc1 (as salt: nitrate) [5c, {4-Chloro-1-[4-(methylsulfonyl)phenyl]-5-(p-tolyl)-1H-pyrazol-3-yl}methyl nitrate] | 113 to 115 |  |  |  |  |  |
| Cc1ccc(-c2c(Cl)c(CCl)nn2-c2ccc(S(N)(=O)=O)cc2)cc1 [4a, 4-[4-Chloro-3-(chloromethyl)-5-(4-toly)-1H-pyrazol-1-yl]benzenesulfonamide] |  | 3.61 |  |  |  | pIC50 (purified ovine COX-1 [2]): < 4.00; SI (recombinant human COX-2 [3]): >454 |
| COc1ccc(-c2c(Cl)c(CO[N+](=O)[O-])nn2-c2ccc(S(C)(=O)=O)cc2)cc1 (as salt: nitrate) [5d, {4-Chloro-5-(4-methoxyphenyl)-1-[4-(methylsulfonyl)phenyl]-1H-pyrazol-3-yl}methyl nitrate] | 141 to 143 |  |  |  |  |  |
| Cc1ccc(-c2cc(CCl)nn2-c2ccc(S(N)(=O)=O)cc2)cc1 [4e, 4-[3-(Chloromethyl)-5-(p-tolyl)-1H-pyrazol-1-yl]benzenesulfonamide] |  | 3.14 |  |  |  | pIC50 (purified ovine COX-1 [2]): < 4.00; SI (recombinant human COX-2 [3]): >78; pIC50 (recombinant human COX-2 [3]; human COX-2, previously reported ref 49): 5.90 |
| COc1ccc(-c2cc(CCl)nn2-c2ccc(S(N)(=O)=O)cc2)cc1 [4f, 4-[3-(Chloromethyl)-5-(4-methoxyphenyl)-1H-pyrazol-1-yl]benzenesulfonamide] | 169 to 172 | 3.06 | < 4.00 | >270 | 6.43 | thiol-dependent NO release [6]: not detectable; spontaneous NO release [6]: not detectable; intact compound [7]: quantitatively consumed |
| COc1ccc(-c2c(Cl)c(CO[N+](=O)[O-])nn2-c2ccc(S(N)(=O)=O)cc2)cc1 (as salt: nitrate) [5b, [4-Chloro-5-(4-methoxyphenyl)-1-(4-sulfamoylphenyl)-1H-pyrazol-3-yl]methyl nitrate] | 173 to 174 |  |  |  |  |  |
| COc1ccc(-c2c(Cl)c(CCl)nn2-c2ccc(S(C)(=O)=O)cc2)cc1 [4d, 4-Chloro-3-(chloromethyl)-5-(4-methoxyphenyl)-1-[4-(methylsulfonyl)phenyl]-1H-pyrazole] | 234 to 236 | 3.84 | < 4.00 | >208 | 6.32 |  |
| Cc1ccc(-c2cc(CO[N+](=O)[O-])nn2-c2ccc(S(N)(=O)=O)cc2)cc1 [5e, [1-(4-Sulfamoylphenyl)-5-(p-tolyl)-1H-pyrazol-3-yl]methyl nitrate] |  | 3.4 |  |  |  | pIC50 (purified ovine COX-1 [2]): < 4.00; SI (recombinant human COX-2 [3]): >112 |
| COc1ccc(-c2c(Cl)c(CCl)nn2-c2ccc(S(N)(=O)=O)cc2)cc1 [4b, 4-[4-Chloro-3-(chloromethyl)-5-(4-methoxyphenyl)-1H-pyrazol-1-yl]benzenesulfonamide] | 238 to 240 | 3.53 | 6.53 | 2.3 | 6.90 |  |
| COc1ccc(-c2c(Cl)c(CO[N+](=O)[O-])nn2-c2ccc(S(N)(=O)=O)cc2)cc1 [5b, [4-Chloro-5-(4-methoxyphenyl)-1-(4-sulfamoylphenyl)-1H-pyrazol-3-yl]methyl nitrate] |  | 3.67 | 5.59 | 5.9 | 6.36 | IC50 (COX-1) (purified ovine COX-1 [4]): considerable COX-1 inhibition potency; thiol-dependent NO release [6]: 20%; spontaneous NO release [6]: no detectable |
| CCC(=O)NS(=O)(=O)c1ccc(-n2nc(CO[N+](=O)[O-])cc2-c2ccc(C)cc2)cc1 (as salt: nitrate) [6c, {1-[4-(N-Propionylsulfamoyl)phenyl]-5-(p-tolyl)-1H-pyrazol-3-yl}methyl nitrate] | 72 to 74 |  |  |  |  |  |
| Cc1ccc(-c2c(Cl)c(CCl)nn2-c2ccc(S(C)(=O)=O)cc2)cc1 [4c, 4-Chloro-3-(chloromethyl)-1-[4-(methylsulfonyl)phenyl]-5-(p-tolyl)-1H-pyrazole] |  | 3.9 | < 4.00 | >138 | 6.14 |  |
